Laboratory results reported in patent US7022484B2, “Methods for treating neuropathological states and neurogenic inflammatory states and methods for identifying compounds useful therein” (Board of Regents, The University of Texas System, priority 2000, dated 2006).
“Also recorded” adds a separate entry of the source.

Tests used:
rat arthritis model = assay: Knee joint circumference and joint temperature in kaolin/carrageenan knee joint inflammation model; format: in vivo; settings: 4 hours after kaolin/carrageenan; spinal pre-treatment
Method: An acute inflammatory response restricted to the knee joint can be induced by the injection of 3% kaolin and 3% carrageenan (in sterile saline; 0.1 ml; pH 7.4) into the joint cavity while the animal is briefly anesthetized with sodium methohexital (Brevital, 60 mg/kg, i.p.). Kaolin and carrageenan were obtained from Fisher Scientific, St. Louis, Mo. The knee joint is flexed manually until the rat awakes (approximately 5–10 minutes). In this arthritis model in the awake rat, localized joint swelling, as well as limping and guarding of the limb, are well developed at 4 hours (Sluka et al., Pain, 59, 95–100 (1994)) when behavioral testing begins.
Knee joint circumference is measured in centimeters (cm) with a flexible tape measure around the center of the knee joint while the joint is held in extension as done with patients in the clinical setting as an indication of increases in joint volume. The knee joints of anesthetized rats are measured before (baseline) and four hours following injection of the knee joint with kaolin and carrageenan.
Temperature readings were documented numerically with a temperature probe after the rat is reanesthetized with sodium pentobarbital (50 mg/kg, i.p.) just prior to perfusion with aldehydes for histological preservation. Comparative temperature differences were made between the baseline temperature and the temperature four hours after induction of inflammation.

NMDA currents = settings: patch clamp studies; cited from earlier work
[1] = tested on: NMDA receptor subunit NR1; assay: Immunocytochemical localization of NMDA receptor subunit NR1 in spinal cord of arthritic rats; format: in vivo, rat; settings: Genistein 1 mM spinal pre-treatment
From the text: Cycloheximide (100 milligrams per kilogram (mg/kg) intraperitoneal (i.p.) was used in some studies to determine if the alterations observed for the NMDA NR1 receptor subunit could be attributed to newly synthesized NR1 protein.
Twenty-four rats in 3 separate groups were used for immunocytochemical studies. One group of rat (n=8) was a naive control. The other 2 groups (n=16) of rats received surgical placement of the microdialysis fiber placement. On the day after microdialysis fiber placement, the animals were treated spinally with either Genistein (1 mM) or vehicle (50% DMSO in aCSF) for 1.5 hours (n=8 for each group). Then the left knee joint of all sixteen rats was injected with 0.1 ml of kaolin and carrageenan.
Animals were anesthetized and transcardially perfused with a brief warm saline rinse followed by fixative solution (4% paraformaldehyde in 0.1 M phosphate buffer, pH 7.4). The tissues were soaked overnight in 30% buffered sucrose and cut at 30 microns on a sliding microtome. For light microscopy, the tissues from animals (n=8) were permeabilized with a 50% buffered ethanol treatment. Tissue sections were then stained immunocytochemically for glutamate receptor subunit NR1 and phospho-NR1. Primary antibodies to be used for staining include anti-NMDA NR1 NMDA receptor (0.5–1 milligrams per milliliter (mg/ml)) purchased from Chemlcon Inc. (Pittsburgh, Pa.). Other neurotransmitter and receptor primary antibodies against NMDA NR2C, mGluR1, and mGluR5 were used as stain specificity controls. The primary antibodies were diluted in phosphate buffered saline (PBS, pH 7.6) with 0.1% BSA for overnight incubation on the spinal cord tissues. After washing in PBS, the tissue sections were incubated in the appropriate secondary antibody, either anti-mouse or anti-rabbit IgG (1:100, 30 minutes) and in avidin-biotin complex (ABC, 1:100, Vector Laboratories, Burlingame, Calif.). Sections were reacted with diaminobenzidine (DAB) solution (1.5 mg/ml) as the chromogen and peroxide (0.5 mg/ml) to produce a dense reaction product. To further intensify the reaction product particularly for visualization of nuclear rings, some tissues were reacted with colloidal gold conjugated IgG and reacted with a silver chloride solution to produce an intense black reaction product (Takizawa et al., J. Histochemistry & Cytochemistry, 42, 1615–1623 (1994)).
Immunocytochemical controls included sections processed in the absence of the primary or secondary antibody or ABC reagents. The specificity of the transmitter antibodies was confirmed by appearance of a single band by Western blot. In addition to use of the C-terminus NR1 antibody from ChemIcon, an antibody directed to the N-terminus of the NR1 protein was used as control (1 mg/ml; BD PharMingen, San Diego, Calif.). […]

O=c1c(-c2ccc(O)cc2)coc2cc(O)cc(O)c12 [Genistein, 5,7-Dihydroxy-3-(4-hydroxyphenyl)-4H-1-benzopyran-4-one; 4′,5,7-trihydroxy-isoflavone]
joint circumference (rat arthritis model): expected increases | joint temperature (rat arthritis model): expected increases | effect on NMDA currents (NMDA currents): decreases NMDA currents | staining for NR1 in spinal cord ([1]; 4 hours, cycloheximide 100 mg/kg i.p.): about half that observed in arthritic rats and was not significantly increased above levels seen in normal rats; also recorded: greatly reduced expression increases for NR1 that were not significantly different from baseline | nuclear localization of NR1 [1]: greatly reduced; also recorded: inhibited the shift in the pattern of NMDA NR1 protein staining
